Assays:
[1] = system: clotting of citrated healthy human plasma by thrombin; assay: Plasma Thrombin Time (TT), clotting of citrated healthy human plasma; assay type: biochemical; settings: 1 mM spermidine; for "TT" Values (%): no addition: 100
Experimental: The effect of the r31 kD polypeptide on clotting of whole blood was measured using the clinical laboratory parameter defined as Thrombin-Time. In this reaction aliquots of 100 μl citrated healthy human plasma were mixed with 100 μl PBS and either the transglutaminase inhibitor spermidine, or with reduced-carboxyamidated p31 kD or reoxidized-refolded r31 kD. 200 μl thrombin solution was added to each aliquot while continuously mixing. The time from the addition of the thrombin to the formation of clot was measured, and is expressed as “TT” in seconds (Table B).

[2] = molecular target: T1, guinea-pig liver transglutaminase (Sigma) (UniProt P08587); assay: Binding of 125I-r31 kD FBD to extracellular matrix (ECM) of endothelial cells in the presence of exogenous transglutaminase; assay type: biochemical; settings: 0.3 μM 125I-r31 kD FBD; 3 mM CaCl2; 0.02 units/ml transglutaminase; 45 minutes
T1 construct: purchased Sigma; host or cells: guinea-pig liver
T1 sequence (P08587 2-690): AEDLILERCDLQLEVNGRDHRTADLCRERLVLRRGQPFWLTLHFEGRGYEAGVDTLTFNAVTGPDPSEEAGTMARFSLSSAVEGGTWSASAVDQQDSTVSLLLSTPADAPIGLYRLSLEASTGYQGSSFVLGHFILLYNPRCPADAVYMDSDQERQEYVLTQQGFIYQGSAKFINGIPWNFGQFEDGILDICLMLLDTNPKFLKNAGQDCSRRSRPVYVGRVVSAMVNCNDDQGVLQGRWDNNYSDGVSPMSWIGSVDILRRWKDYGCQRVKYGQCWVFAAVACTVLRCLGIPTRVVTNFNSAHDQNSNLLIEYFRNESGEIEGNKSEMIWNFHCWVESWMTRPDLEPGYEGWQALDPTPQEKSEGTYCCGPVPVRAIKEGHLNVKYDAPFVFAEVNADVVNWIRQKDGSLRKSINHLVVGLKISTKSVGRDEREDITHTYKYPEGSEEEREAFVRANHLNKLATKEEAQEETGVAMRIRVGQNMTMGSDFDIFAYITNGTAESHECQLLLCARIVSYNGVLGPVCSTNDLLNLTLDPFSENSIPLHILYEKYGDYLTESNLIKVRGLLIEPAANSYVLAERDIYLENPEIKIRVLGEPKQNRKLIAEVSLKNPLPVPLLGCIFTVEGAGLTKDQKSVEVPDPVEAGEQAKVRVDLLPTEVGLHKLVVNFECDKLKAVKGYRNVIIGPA
Experimental: FIG. 51. Binding of ^125I-r31 kD FBD to ECM in the presence of various constituents
0.3 μM of ^125I-r31 kD FBD was incubated with extracellular matrix of endothelial cells (ECM) as described by Eld r et al. (20) in a 37° C. CO2-incubator in the presence of saline, 3 mM CaCl2 and 0.02 units/ml of guinea-pig liver transglutaminase (TG) and other constituents as indicated in the figure. The control was done in the absence of transglutaminase.
The reactions were terminated after 45 minutes by washing five times with PBS. Plates were extracted with a solution of 0.5% SDS and aliquots of the extracted material were measured in a gamma counter.
The binding was now further characterized by examination of the binding of 0.3 μM ^125I-r31 kD FBD to ECM in the presence and absence of exogenous transglutaminase; additionally the binding in the presence of transglutaminase was examined in the presence of each of heparin, fibronectin or spermidine.

NCCCCNCCCN [spermidine]
"TT" Values (\) ([1]; thrombin conc. 1.25 (μ/ml)): 105 | "TT" Values ([1]; thrombin conc. 1.25 (μ/ml), no addition: 55.4): 114 s | "TT" Values (%) ([1]; thrombin conc. 1.25 (μ/ml)): 205% | "TT" Values (\) ([1]; thrombin conc. 2.5 (μ/ml)): 72 | "TT" Values ([1]; thrombin conc. 2.5 (μ/ml), no addition: 25.5): 44 s | "TT" Values (%) ([1]; thrombin conc. 2.5 (μ/ml)): 172% | effect on binding of r31 kD FBD to ECM in the presence of transglutaminase [2]: inhibits the binding
